Data reported in US20230279018A1, “AP[…] INHIBITION” (priority 2020, published 2023).

Target: T1, Pf-Mut (L550V) cFRS (Plasmodium falciparum, UniProt Q8I246, L550V)
T1 sequence (Q8I246 1-575 L550V): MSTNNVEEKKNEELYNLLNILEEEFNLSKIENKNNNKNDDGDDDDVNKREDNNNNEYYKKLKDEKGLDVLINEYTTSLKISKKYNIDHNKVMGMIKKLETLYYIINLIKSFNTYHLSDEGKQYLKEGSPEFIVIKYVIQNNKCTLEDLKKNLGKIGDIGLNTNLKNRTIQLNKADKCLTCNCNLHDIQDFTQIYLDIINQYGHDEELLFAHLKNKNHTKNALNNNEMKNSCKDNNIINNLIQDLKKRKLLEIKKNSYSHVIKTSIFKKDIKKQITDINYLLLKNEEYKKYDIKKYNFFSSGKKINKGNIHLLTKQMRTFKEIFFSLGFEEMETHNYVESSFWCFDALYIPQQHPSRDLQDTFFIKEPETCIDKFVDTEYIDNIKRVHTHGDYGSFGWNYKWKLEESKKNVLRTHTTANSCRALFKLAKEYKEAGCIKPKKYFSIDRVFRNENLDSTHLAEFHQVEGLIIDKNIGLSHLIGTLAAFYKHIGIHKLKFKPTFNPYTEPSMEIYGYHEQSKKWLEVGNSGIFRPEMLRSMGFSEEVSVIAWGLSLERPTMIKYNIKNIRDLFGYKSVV
T1 sequence (Q8IIW2 1-623 partner): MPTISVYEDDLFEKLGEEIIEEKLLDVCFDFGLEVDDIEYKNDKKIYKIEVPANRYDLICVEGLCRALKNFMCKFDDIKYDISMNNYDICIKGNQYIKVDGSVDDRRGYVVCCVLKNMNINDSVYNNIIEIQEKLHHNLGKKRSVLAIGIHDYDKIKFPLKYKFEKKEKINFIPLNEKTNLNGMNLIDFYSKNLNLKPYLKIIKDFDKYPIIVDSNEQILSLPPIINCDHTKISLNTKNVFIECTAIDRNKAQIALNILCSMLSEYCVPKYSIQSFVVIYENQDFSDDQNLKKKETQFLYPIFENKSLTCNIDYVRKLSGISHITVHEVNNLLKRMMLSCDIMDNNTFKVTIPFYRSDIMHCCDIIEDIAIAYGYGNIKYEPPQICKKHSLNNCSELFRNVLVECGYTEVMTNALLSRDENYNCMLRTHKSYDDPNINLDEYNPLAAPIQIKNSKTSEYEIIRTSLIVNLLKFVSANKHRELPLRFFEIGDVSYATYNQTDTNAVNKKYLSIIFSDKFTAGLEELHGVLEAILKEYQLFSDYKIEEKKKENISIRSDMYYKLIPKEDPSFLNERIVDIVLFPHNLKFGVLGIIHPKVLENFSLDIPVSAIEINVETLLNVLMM
Experiment: malachite green-based aminoacylation assay, Pf-Mut (L550V) cFRS
Type: biochemical
Conditions: aminoacylation activity; read-out: cFRS IC50, Pf mutant (L550V)
Text: EC50 assays were run as described in Int'l Pub Nos. WO 2015070204, WO 2018175385, and Kato, N, et al. Nature 538 (2016): 344-349, which are hereby incorporated by reference in its entirety. The inhibition of the aminoacylation activity of Pf (Plasmodium falciparum), Pv (Plasmodium vivax), Hs (Human) and Pf-Mut (L550V) cFRS enzymes by Compound 1 are illustrated in FIG. 1.
The enzymatic activity of purified heterodimeric PfcFRS using malachite green-based aminoacylation assays with substrates L-Phe and ATP was also measured as described in Cestari, I. et al., J Biomol. Screen. 18 (2013): 490-497 and Kato, N, et al. Nature 538 (2016): 344-349, which are hereby incorporated by reference in its entirety. […] Enzymatic reactions (50 μl total volume) were performed in clear, flat-bottomed, 96-well plates (Costar 96-well standard microplates). The reaction mixture was incubated for 2 h at 37° C. The reaction was stopped by adding 12.5 μl of malachite green solution to the reaction mixture and levels of inorganic phosphate (Pi) were detected after incubation of 5 min at room temperature. Absorbance was the measured at 620 nm using a Spectramax M2 (Molecular Devices). Reactions without FRS enzyme were performed as background controls, values of which were subtracted from the reactions with enzyme. […]

`COC[C@@H]1[C@H](c2ccc(C#Cc3ccccc3)cc2)[C@@H]2CN(C(=O)Nc3ccc(OC4CC4)cc3)C[C@@H](O)[C@@H](O)CN12` [Compound 1, (3S,4R,8R,9R,10S)—N-(4-cyclopropoxyphenyl)-3,4-dihydroxy-10-(methoxymethyl)-9-(4-(phenylethynyl)phenyl)-1,6-diazabicyclo[6.2.0]decane-6-carboxamide] showed an IC50 of 1000 nM.
